Results taken from US8546357B2, “Boron-containing small molecules for controlling ectoparasites” (priority 2011, dated 2013).

Test system: Lone star tick larvae (Amblyomma americanum)
Experiment: Larval immersion microassay against larval-stage Lone star ticks
Settings: for mortality at 300 µM: Amblyomma americanum, 24 h, read-out: activity (percent larval mortality); for In vitro activity at 0.3 mM: larval immersion microassay, 24 hours
Description: The larval immersion microassay was conducted as described in detail in White, et al., J. Med. Entomol. 41: 1034-1042 (2004). Compounds of the invention were formulated in dimethylsulfoxide (DMSO) to prepare a stock solution at a concentration of at least 10 mM. Using 96-well microtiter plates, an aliquot of the mM sample was subsequently diluted in a water-based solution containing 1% ethanol and 0.2% Triton X-100, to obtain the desired concentration (typically 0.3 mM or lower) of compound in a volume of 0.1 ml (minimum n=3 replicates per compound or concentration). Approximately 30-50 Lone star tick larvae (Amblyomma americanum) were submerged into each well containing compounds. After a 30 minute immersion period, larvae were removed with a wide-bore pipette tip in 0.05 ml of fluid, dispensed into a commercial paper tissue biopsy bag which was sealed at the top with a plastic dialysis clip, inverted and allowed to air dry for 60 minutes. Bags containing larvae were then incubated at approximately 27 degrees Celsius and >90% relative humidity. After 24 hours, bags were opened, live and dead larvae were counted and percent larval mortality was calculated.
7 and 8 contain one chiral center each, and are racemic mixtures comprised of approximately 50% R- and 50% S-enantiomer. In vitro and surrogate animal (rat) studies were conducted to evaluate the biological activity of the R- and S-enantiomers of 7 and 8. For the in vitro study, larvae of the Lone star tick (Amblyomma americanum) were exposed to 9, 10, 11 and 12 using the larval immersion microassay at a concentration of no greater than 0.3 mM. Following exposure, larvae were removed, transferred to a tissue biopsy bag and incubated at approximately 27 degrees Celsius and >90% relative humidity. After 24 hours, biopsy bags were opened and the numbers of live and dead larvae were determined

SMILES	mortality at 300 µM	In vitro activity at 0.3 mM
Cc1cc(C2=NOC(c3cc(Cl)c(Cl)c(Cl)c3)(C(F)(F)F)C2)ccc1C(=O)NCc1ccc2c(c1)C(C)(C)OB2O (centres unmarked) [Compound 1, N-((1-Hydroxy-3,3-dimethyl-1,3-dihydrobenzo[c][1,2]oxaborol-5-yl)methyl)-2-methyl-4-(5-(3,4,5-trichlorophenyl)-5-(trifluoromethyl)-4,5-dihydroisoxazol-3-yl)benzamide]	≥ 80%	
Cc1cc(C2=NOC(c3cc(Cl)cc(Cl)c3)(C(F)(F)F)C2)ccc1C(=O)NCc1ccc2c(c1)C(C)(C)OB2O (centres unmarked) [Compound 2, 4-(5-(3,5-Dichlorophenyl)-5-(trifluoromethyl)-4,5-dihydroisoxazol-3-yl)-N-((1-hydroxy-3,3-dimethyl-1,3-dihydrobenzo[c][1,2]oxaborol-5-yl)methyl)-2-methylbenzamide]	≥ 80%	
Cc1cc(C2=NOC(c3cc(Cl)cc(Cl)c3)(C(F)(F)F)C2)ccc1C(=O)NCc1ccc2c(c1)B(O)OC2 (centres unmarked) [Compound 4, 4-(5-(3,5-Dichlorophenyl)-5-(trifluoromethyl)-4,5-dihydroisoxazol-3-yl)-N-((1-hydroxy-1,3-dihydrobenzo[c][1,2]oxaborol-6-yl)methyl)-2-methylbenzamide]	≥ 80%	
Cc1cc(C2=NO[C@](c3cc(Cl)c(Cl)c(Cl)c3)(C(F)(F)F)C2)ccc1C(=O)NCc1ccc2c(c1)B(O)OC2(C)C [Compound 10, (R)—N-((1-hydroxy-3,3-dimethyl-1,3-dihydrobenzo[c][1,2]oxaborol-6-yl)methyl)-2-methyl-4-(5-(3,4,5-trichlorophenyl)-5-(trifluoromethyl)-4,5-dihydroisoxazol-3-yl)benzamide]		0.0%
Cc1cc(C2=NO[C@](c3cc(Cl)c(F)c(Cl)c3)(C(F)(F)F)C2)ccc1C(=O)NCc1ccc2c(c1)B(O)OC2(C)C [Compound 12, (R)-4-(5-(3,5-Dichloro-4-fluorophenyl)-5-(trifluoromethyl)-4,5-dihydroisoxazol-3-yl)-N-((1-hydroxy-3,3-dimethyl-1,3-dihydrobenzo[c][1,2]oxaborol-6-yl)methyl)-2-methylbenzamide]		0.0%
CCC1(CC)OB(O)c2cc(CNC(=O)c3ccc(C4=NOC(c5cc(Cl)cc(Cl)c5)(C(F)(F)F)C4)cc3C)ccc21 (centres unmarked) [Compound 13, 4-(5-(3,5-Dichlorophenyl)-5-(trifluoromethyl)-4,5-dihydroisoxazol-3-yl)-N-((3,3-diethyl-1-hydroxy-1,3-dihydrobenzo[c][1,2]oxaborol-6-yl)methyl)-2-methylbenzamide]	≥ 80%	
CCC1(CC)OB(O)c2cc(CNC(=O)c3ccc(C4=NOC(c5cc(Cl)c(F)c(Cl)c5)(C(F)(F)F)C4)cc3C)ccc21 (centres unmarked) [Compound 14, 4-(5-(3,5-Dichloro-4-fluorophenyl)-5-(trifluoromethyl)-4,5-dihydroisoxazol-3-yl)-N-((3,3-diethyl-1-hydroxy-1,3-dihydrobenzo[c][1,2]oxaborol-6-yl)methyl)-2-methylbenzamide]	≥ 80%	
Cc1cc(C2=NOC(c3cc(Cl)cc(Cl)c3)(C(F)(F)F)C2)ccc1C(=O)NCc1ccc2c(c1)B(O)OC2(CF)CF (centres unmarked) [Compound 16, N-((3,3-Bis(fluoromethyl)-1-hydroxy-1,3-dihydrobenzo[c][1,2]oxaborol-6-yl)methyl)-4-(5-(3,5-dichlorophenyl)-5-(trifluoromethyl)-4,5-dihydroisoxazol-3-yl)-2-methylbenzamide]	≥ 80%	
Cc1cc(C2=NOC(c3cc(Cl)c(Cl)c(Cl)c3)(C(F)(F)F)C2)ccc1C(=O)NCc1ccc2c(c1)B(O)OC2(CF)CF (centres unmarked) [Compound 17a, N-((3,3-Bis(fluoromethyl)-1-hydroxy-1,3-dihydrobenzo[c][1,2]oxaborol-6-yl)methyl)-2-methyl-4-(5-(3,4,5-trichlorophenyl)-5-(trifluoromethyl)-4,5-dihydroisoxazol-3-yl)benzamide]	≥ 80%	
Cc1cc(C2=NOC(c3cc(Cl)c(Cl)c(Cl)c3)(C(F)(F)F)C2)ccc1C(=O)NCc1ccc2c(c1)B(O)OC21CCCC1 (centres unmarked) [Compound 18, N-((1-Hydroxy-1H-spiro[benzo[c][1,2]oxaborole-3,1′-cyclopentan]-6-yl)methyl)-2-methyl-4-(5-(3,4,5-trichlorophenyl)-5-(trifluoromethyl)-4,5-dihydroisoxazol-3-yl)benzamide]	≥ 80%	
Cc1cc(C2=NOC(c3cc(Cl)c(Cl)c(Cl)c3)(C(F)(F)F)C2)ccc1C(=O)NCCc1ccc2c(c1)B(O)OC2(C)C (centres unmarked) [Compound 19, N-(2-(1-Hydroxy-3,3-dimethyl-1,3-dihydrobenzo[c][1,2]oxaborol-6-yl)ethyl)-2-methyl-4-(5-(3,4,5-trichlorophenyl)-5-(trifluoromethyl)-4,5-dihydroisoxazol-3-yl)benzamide]	≥ 80%	
Cc1cc(C2=NOC(c3cc(Cl)c(F)c(Cl)c3)(C(F)(F)F)C2)ccc1C(=O)NCCc1ccc2c(c1)B(O)OC2(C)C (centres unmarked) [Compound 20, 4-(5-(3,5-Dichloro-4-fluorophenyl)-5-(trifluoromethyl)-4,5-dihydroisoxazol-3-yl)-N-(2-(1-hydroxy-3,3-dimethyl-1,3-dihydrobenzo[c][1,2]oxaborol-6-yl)ethyl)-2-methylbenzamide]	≥ 80%	
Cc1cc(C2=NOC(c3cc(Cl)c(Cl)c(Cl)c3)(C(F)(F)F)C2)ccc1C(=O)NC(C)c1ccc2c(c1)B(O)OC2(C)C (centres unmarked) [Compound 22a, N-(1-(1-Hydroxy-3,3-dimethyl-1,3-dihydrobenzo[c][1,2]oxaborol-6-yl)ethyl)-2-methyl-4-(5-(3,4,5-trichlorophenyl)-5-(trifluoromethyl)-4,5-dihydroisoxazol-3-yl)benzamide]	≥ 80%	
Cc1cc(C2=NOC(c3cc(Cl)c(Cl)c(Cl)c3)(C(F)(F)F)C2)ccc1C(=O)NCc1cc(F)c2c(c1)B(O)OC2(C)C (centres unmarked) [Compound 24, N-((4-fluoro-1-hydroxy-3,3-dimethyl-1,3-dihydrobenzo[c][1,2]oxaborol-6-yl)methyl)-2-methyl-4-(5-(3,4,5-trichlorophenyl)-5-(trifluoromethyl)-4,5-dihydroisoxazol-3-yl)benzamide]	≥ 80%	
